Test results published in patent EP1541694A1, “Methods of identifying, selecting and/or characterizing compounds which modulate the activity of a Src family kinase” (Sirenade Pharmaceuticals AG, priority 2003, dated 2005).

Legend:
[1] = system: Src-TQ/YF expressing cell line ZM170.21; test: Suppression of tet-induced phenotype changes (cell scattering) in suspension, Ultra Low Attachment plates; type: cell-based, human; conditions: ZM170.21 (Src-TQ/YF) in suspension, Ultralow Attachment Plates
Experimental: (§1) Cells were seeded into 24-well or 96-well "Ultra Low Attachment" plates (cat.no.: 3473, Costar Corning Corp., Acton, MA, USA). These plates are coated with a covalently bound hydrogel layer that prevents cellular attachment to the polystyrene surface of the wells. As the cells were not attached to these wells, a medium change was impossible here. However, the phenotypes were tested in full serum-containing medium in the absence or presence of EGF, PDGF-BB or HGF as detailed above. Tet-induction was also started the day after seeding.
(§2) Largely irrespective of the cell numbers per well, the cells of all cell lines were in suspension and formed one or few very condensed/compact, opaque, rod-, disc- or kidney-shaped aggregates with a smooth surface, in which individual cells could not be discerned. Phenotype changes became apparent ~24 h after tet induction in ZM77 and ZM170 cell lines only, and Δpt(-tet →+tet)max was reached after ~2 days. In these cell lines Src-YF or Src-TQ/YF expression, respectively, induces scattering of the cells. Many cells are floating in the medium individually or in small clusters and the remaining large aggregate(s) are irregular-shaped and rather loose than compact; individual cells can easily be discerned and thus, the surfaces of these aggregates are rough as with bunches of grapes (Fig.14a,b). This biological response was readily observed with or without any of the above growth factors, wherefore normal growth medium without any additional growth factor was subsequently used in this assay type.
(§3) To that end, the test compounds PP1-Chr., SU6656 and PP2 were individually added to the cells together with tet, and the development of the phenotype changes in the presence of these compounds was monitored subsequently in direct comparison with tet-induced cells that received no compound (Fig.14c-j). The compounds were also added to the cells without tet-induction of Src/ Src mutant expression as controls for non-specific/ toxicity effects. The experiments were performed with several ZM77 cell lines.

[2] = system: Src-YF expressing ZM77 cell lines; test: as above; type: cell-based, human; conditions: Ultralow Attachment Plates
Experimental: as §1, §2, §3

[3] = system: Src-TQ/YF expressing cell line ZM170.21; test: CTB and ATP cell viability/metabolic activity assays, suppression of tet-induced reduction; type: cell-based, human; conditions: ZM170.21 (Src-TQ/YF), 5µM PP2 + 10µM PP1-Chr., 40µM D5, 1µM 17-AAG, 1µM radicicol
Description: (§4) To proof the concept of the assay platform according to the invention in a quantitative manner with a highly parallel readout, the following cell viability / metabolic activity assays from Promega according to the manufacturer's protocols: "CellTiter 96 AQueous One Solution Cell Proliferation Assay (MTS)", CellTiter-BlueTM Cell Viability Assay (CTB), and the ATP-status assay "CellTiter-Glo Luminescent Cell Viability Assay" (ATP) were used to obtain quantitative values reflecting (aspects of) the phenotype changes. The cells were seeded into white-walled/ clear bottom 96-well plates ["MICROTEST" by Falcon, cat.no. 353947] for MTS and ATP assays and in black-walled/ clear bottom 96-well plates ["MICROTEST" by Falcon, cat.no. 353948] for the CTB assay at the appropriate densities. Tet and/or compound addition (where applicable) was started the next day. Measurements were taken 1,2 and 3 days later using the Wallac Victor^2TM multilabel plate reader (Perkin Elmer). Absorbance was measured at 490nm (MTS). Luminescence mode was used for the ATP assay. For CTB fluorescence excitation wavelength was 550nm (filter: 550(20)nm), emission wavelength was 590 nm (filter: 590(20)nm). Indicated are the means of sixplicate determinations (from 6 independent wells) in the absence of tet (mean(-tet)) and in the presence of tet (mean(+tet)), followed by the respective corresponding standard deviations SD(-tet) and SD(+tet). The cell viability/ metabolic activity upon tet-induction in relation to the cell viability/ metabolic activity without tet ("+/tet(means") is calculated from the quotient of the means of the measured cell viability/ metabolic activity signals from i) cells incubated without tet and ii) cells incubated with tet. […] Furthermore indicated are the corresponding Z' values. In the present context: Z'=1-(3(SD(+tet)+SD(-tet))/ |mean(+tet)-mean(-tet)|. […] SD=0) (Zhang et al., 1999). Z'≥0 is required for an assay useful for a screening approach; a Z'≥0.5 is considered excellent for an assay with regard to high throughput screening. […] Three more parameters reflecting the effects of compounds on cell viability/metabolic activity in these assays are indicated in Tab.3 and Tab.4: Toxicity reflects the nonspecific (i.e. irrespective of tet-induced Src/ Src mutant expression) effects of a compound on the viability/ metabolic activity of the cells. It is calculated as toxicity=1-mean(-tet, compound)/mean(-tet,(DMSO)). […] The suppression value quantifies the potency of a compound with respect to suppression of the tet-induced change in cell viability / metabolic activity. Usually, tet-induction reduces cell viability / metabolic activity due to Src activity and addition of a Src inhibitory compound mitigates this reduction. A suppression of 100% means that the compound totally suppresses the tet-induced decrease in cell viability / metabolic activity (as in the absence of tet). The following formula is employed: Suppres-sion=([…]). Finally, the corresponding Z' value is calculated as follows: Z'(suppression)=1- 3([…]). The factor Qtox corrects the means and SD determined in the absence of a compound for the (nonspecific) toxicity effect of the respective compound, which would otherwise overlay and obscure the specific suppression, if toxicity is not neglectable. […] On each day 4 measurements are taken (1, 2, 3 and 4 h after the addition of the CTB assay reagents). […]

[4] = system: Src-YF expressing cell line ZM77.8; test: as above; type: cell-based, human; conditions: ZM77.8 (Src-YF), 5µM PP2 + 10µM PP1-Chr., 40µM D5, 1µM 17-AAG, 1µM radicicol
Description: as §4

[5] = system: Abl-TQ; conditions: cited from earlier work
[6] = system: Src family kinases when they carry the respective TQ mutations; conditions: cited from earlier work
[7] = system: cell line ZM76.3 (Src-KA); test: CTB cell viability assay, suppression of tet-induced reduction; type: cell-based, human; conditions: ZM76.3, CTB assay
Description: To proof the concept of the assay platform according to the invention in a quantitative manner with a highly parallel readout, the following cell viability / metabolic activity assays from Promega according to the manufacturer's protocols: "CellTiter 96 AQueous One Solution Cell Proliferation Assay (MTS)", CellTiter-BlueTM Cell Viability Assay (CTB), and the ATP-status assay "CellTiter-Glo Luminescent Cell Viability Assay" (ATP) were used to obtain quantitative values reflecting (aspects of) the phenotype changes. The cells were seeded into white-walled/ clear bottom 96-well plates ["MICROTEST" by Falcon, cat.no. […] Measurements were taken 1,2 and 3 days later using the Wallac Victor^2TM multilabel plate reader (Perkin Elmer). Absorbance was measured at 490nm (MTS). Luminescence mode was used for the ATP assay. For CTB fluorescence excitation wavelength was 550nm (filter: 550(20)nm), emission wavelength was 590 nm (filter: 590(20)nm). […] The cell viability/ metabolic activity upon tet-induction in relation to the cell viability/ metabolic activity without tet ("+/tet(means") is calculated from the quotient of the means of the measured cell viability/ metabolic activity signals from i) cells incubated without tet and ii) cells incubated with tet. […] It is calculated as toxicity=1-mean(-tet, compound)/mean(-tet,(DMSO)). […]

[8] = system: Src-YF expressing ZM77 cell lines; test: Suppression of tet-induced phenotype changes, evaluated by eye/microscope, normal cell culture plates; type: cell-based, human; conditions: adherent, serum-containing medium
Experimental: Phenotype changes -tet → +tet were evaluated in 24-well plates (Nunc; cat.no. 143982) under the following several different growth conditions to identify the strongest possible response (Δpt(-tet→+tet)max) 1. full (10% serum containing) growth medium a) without any growth factor supplement (-), b) with epidermal growth factor (EGF; 100ng/ml) (cat.no. 115, Research Diagnostics Inc. (RDI), Flanders, NJ, USA) or c) platelet derived growth factor type BB (PDGF-BB; 30ng/ml) (cat.no. 114b, RDI) or d) hepatocyte growth factor (HGF; 20ng/ml) (RDI, cat.no.300-010), or 2. serum-free medium a) - or b) +EGF or c) +PDGF or d) +HGF. In all cases, cells were first seeded into standard 24-well or 96-well plates (Nunc) in full growth medium. The cell number seeded per well was also varied to identify the most suitable cell densities producing Δpt(-tet→+tet)max. […]
To that end, the test compounds PP1-Chr., PP2 (cat.no. 529573, Calbiochem) and SU6656 (cat.no. 572635, Calbiochem) (see Fig.9p for chemical structures) were individually added to the cells together with tet, and the development of the phenotype changes in the presence of these compounds was monitored subsequently in direct comparison with cells that received no compound or only vehicle (0.2% DMSO) together with tet induction. […]

## C=CCNC1=C2C[C@@H](C)C[C@H](OC)[C@H](O)[C@@H](C)/C=C(\C)[C@H](OC(N)=O)[C@@H](OC)/C=C\C=C(/C)C(=O)NC(=CC1=O)C2=O [17-AAG]
[1]
  suppression of tet-induced phenotype (cell scattering): suppress to a large extent
[2]
  suppression of tet-induced phenotype changes (cell scattering): suppress to a large extent
[3]
  suppression of the +/-tet(means)-values: equally effective
[4]
  suppression of the tet-induced reductions of the cell viability/ metabolic activity (+/-tet(means)-values): equally effective

## Cc1ccc(NC(=O)c2ccc(CN3CCN(C)CC3)cc2)cc1Nc1nccc(-c2cccnc2)n1 [Gleevec®]
[5]
  inhibition of Abl-TQ: does not inhibit

## Cc1ccc(-c2nn(C(C)(C)C)c3ncnc(N)c23)cc1 [PP1]
[6]
  inhibition of Src family kinases carrying the TQ mutations: do not inhibit

## C[C@@H]1C[C@H]2O[C@@H]2/C=C\C=C\C(=O)Cc2c(Cl)c(O)cc(O)c2C(=O)O1 [Radicicol, radicicol]
[1]
  suppression of tet-induced phenotype (cell scattering): suppress to a large extent
[2]
  suppression of tet-induced phenotype changes (cell scattering): suppress to a large extent
[3]
  suppression of the +/-tet(means)-values: equally effective
[4]
  suppression of the tet-induced reductions of the cell viability/ metabolic activity (+/-tet(means)-values): equally effective
[7]
  suppression of the Src-KA-induced phenotype: effectively suppressing

## CN(C)S(=O)(=O)c1ccc2c(c1)/C(=C/c1cc3c([nH]1)CCCC3)C(=O)N2 [SU6656]
[8]
  suppression of tet-induced phenotype changes: partially suppressed
[2]
  suppression of tet-induced phenotype changes (cell scattering): partially suppressed
